Source: US10307410B2, “Mcl-1 modulating compounds for cancer treatment” (CENTRE REGIONAL DE LUTTE CONTRE LE CANCER FRANCOIS BACLESSE, priority 2014, dated 2019)

What was measured:
Assay type in all cases: cell-based
[1] = test system: IGROV1-R10 ovarian cancer cells; experiment: DNA content histograms (sub-G1) by flow cytometry; conditions: Molecule + Bcl-xL targeting siRNA
Procedure: (§1) Exponentially growing cells were transfected by siRNA as described below, and after 48 h, cells were continuously exposed to (Het)aromatic oligosystems (10, 25 or 50 μM) dissolved in DMSO (<0.1% of total volume) for 4 to 24 supplementary hours.
Cells were seeded in 25 cm^2 flasks the day before to reach 30-50% confluency at the time of transfection. The transfection INTERFERin™ reagent (Polyplus Transfection, Strasbourg. France) was added to siRNA diluted in Opti-MEM® reduced serum medium (Invitrogen, Cergy-Pontoise, France) and complexes formation was allowed to proceed for 15 min at RT before being applied to cells. […]
Adherent and floating cells were pooled, washed with 1×PBS and centrifuged at 200 g for 5 min before staining by Annexin V, propidium iodide or both, as recommended by the manufacturer (Roche Diagnostic, Indianapolis, USA). Briefly, 100 μl of Annexin V—Flit or propidium iodide or both were added on the cells pellet (10^6 cells) and incubated 15 minutes at room temperature in obscurity. 500 μl of sample buffer was then added on the suspensions that were thereafter analyzed using a Gallios flow cytometer (Beckman Coulter, Roissy, France) and cell cycle distribution was determined using Kaluza acquisition software (Beckman Coulter).

[2] = test system: IGROV1-R10 ovarian cancer cells; experiment: Nuclear morphology after DAPI staining; design: key to Apoptotic nuclear features: +: a few condensed or fragmented nuclei are observable after DAPI staining; ++: numerous condensed or fragmented nuclei are observable after DAPI staining (20-50%); +++: most of the nuclei are condensed or fragmented; conditions: Molecule + Bcl-xL targeting siRNA, DAPI staining
Procedure: as §1
(§2) Cells were seeded in 25 cm^2 flasks the day before to reach 30-50% confluency at the time of transfection. The transfection INTERFERin™ reagent (Polyplus Transfection, Strasbourg. France) was added to siRNA diluted in Opti-MEM® reduced serum medium (Invitrogen, Cergy-Pontoise, France) and complexes formation was allowed to proceed for 15 min at RT before being applied to cells. The final siRNA concentration in the flasks was 20 nM.
After treatment, both detached and adherent cells were pooled after trypsinization, applied to a polylysine-coated glass slide by cytocentrifugation and fixed with a solution of ethanol/chloroform/acetic acid (6:3:1). The preparations were then incubated for 15 min at room temperature with 1 μg/ml DAPI solution (Boehringer Mannheim-Roche, Mannheim, Germany), washed in distillated water, mounted under a coverslip in Mowiol (Calbiochem) and analyzed under a fluorescence microscope (BX51, Olympus, Rungis, France).
Cells were fixed with 2.5% glutaraldehyde in PBS buffer, included in agar, rinsed in Sorensen's buffer, post-fixed in osmium tetroxide 1% in Sorensen's buffer, deshydrated in ethanol and embedded in EPON resin. Ultrathin sections were cut and stained with uranyl acetate and lead citrate and examined using a JEOL1011 transmission electron microscope.

[3] = test system: IGROV1-R10 ovarian cancer cells; experiment: Cellular morphology / cell detachment, molecule alone or with Bcl-xL targeting siRNA; conditions: Molecule + Bcl-xL targeting siRNA
Procedure: as §1, §2

[4] = test system: IGROV1-R10 ovarian cancer cells; experiment: PARP and caspase 3 cleavage by western blot; design: key to PARP cleavage: +: a little band corresponding to the 85 kDa cleaved form of PARP is observable on the western blot; ++: a band corresponding to the 85 kDa cleaved form of PARP is clearly observable on the western blot; +++: PARP in nearly completely cleaved; conditions: Molecule + Bcl-xL targeting siRNA
Procedure: as §1, §2
Cells were rinsed with ice-cold PBS, suspended in a lysis buffer [RIPA:NaCl 150 mM, Tris (pH 8) 50 mM, Triton X100 1%, PMSF 4 mM, EDTA 5 mM, NaF 10 mM, NaPPi 10 mM, Na3OV4 1 mM, aprotinin 0.5 μl/ml and 4.6 ml ultra pure water] and incubated on ice for 30 minutes. Lysates were collected after centrifugation (13200 g, 10 min, 4° C.) and protein concentrations were determined using the Bradford assay (Bio-Rad, Hercules, USA). 20 μg of protein were separated by SDS-PAGE on a 4-12% gradient polyacrylamide gel (Invitrogen, Cergy-Pontoise, France) and transferred to Hybond-PVDF membranes (Amersham, Orsay, France). After blocking non-specific binding sites for 1 hour at RT by 5% (w/v) non-fat dry milk in TBS with 0.1% (v/v) Tween20 (T-TBS), the membranes were incubated overnight at 4° C. with the following rabbit monoclonal antibody: PARP, caspase-3 and Bcl-xL, Bim (Cell Signaling Technology, Ozyme, Saint-Quentin-en-Yvelines, France), Mcl-1 (Santa Cruz, Le Perray-en-Yvelines, France), HSP-70, Noxa (Calbiochem, Fontenay-sous-Bois, France), (Cell Signalling) and Actin (Sigma-Aldrich, Saint-Quentin Fallavier, France). Membranes were then washed with T-TBS and incubated for 1 hour with the appropriate horseradish peroxidase-conjugated anti-rabbit or anti-mouse (Amersham, Orsay, France) secondary antibodies. Revelation was done using a luminescent Image Analyzer (GE Healthcare, Orsay, France).

| Compound | Sub-G1 (%) [1] | Apoptotic nuclear features [2] | Cell detachment [3] | PARP cleavage [4] |
| --- | --- | --- | --- | --- |
| Cc1cc(-c2ncc(-c3cccnc3)cc2/C=C/c2ccccc2)cnc1-c1cccc(O)c1 [compound 31364, 3-(3-methyl-5-(5-(pyridin-3-yl)-3-styrylpyridin-2-yl)pyridin-2-yl)phenol] | 39.6% | ++ (numerous condensed or fragmented nuclei are observable after DAPI staining (20-50%)) | – | – |
| COc1ccc(-c2cnc(-c3cnc(-c4ccc(OC)c(OC)c4)c(C)c3)c(/C=C/c3ccccc3)c2)cc1OC [compound 30846, 2-(3,4-dimethoxyphenyl)-5-(5-(3,4-dimethoxyphenyl)-3-styrylpyridin-2-yl)-3-methylpyridine] | 33.1% | + | – | – |
| Cc1cc(-c2ncc(-c3sccc3C)cc2/C=C/c2ccccc2)cnc1-c1sccc1C [compound 31336, 3-methyl-2-(3-methylthiophen-2-yl)-5-(5-(3-methylthiophen-2-yl)-3-(E)-styrylpyridin-2-yl)pyridine] | 48.8% | ++ (numerous condensed or fragmented nuclei are observable after DAPI staining (20-50%)) | – | – |
| Cc1cc(-c2ncc(-c3ccc(C#N)cc3)cc2/C=C/c2ccccc2)cnc1-c1ccc(C#N)cc1 [compound 30854, 3-methyl-2-(4-cyanophenyl)-5-(5-(4-cyanophenyl)-3-styrylpyridin-2-yl)pyridine] | 24.3% | + | ± (very few cells were detached from the support (less than 10%)) | – |
| COc1ccc(-c2ncc(-c3ncc(-c4cc(OC)c(OC)c(OC)c4)cc3/C=C/c3ccccc3)cc2C)cc1OC [compound 30850, 5-(3,4,5-trimethoxyphenyl)-2-(6-(3,4-dimethoxyphenyl)-5-methylpyridin-3-yl)-3-styrylpyridine] | 20.2% | + | – | – |
| Cc1cc(-c2ncc(-c3cnc(Cl)n3C)cc2/C=C/c2ccccc2)cnc1-c1cnc(Cl)n1C [compound 31351, 5-(2-chloro-1-methyl-1H-imidazol-5-yl)-2-(6-(2-chloro-1-methyl-1H-imidazol-5-yl)-5-methylpyridin-3-yl)-3-styrylpyridine] | 56.7% | +++ | – | – |
| Cc1cc(-c2ncc(-c3ccccc3)cc2/C=C/c2ccccc2)cnc1-c1ccccc1 [compound 30814, 3-methyl-2-phenyl-5-(5-phenyl-3-styrylpyridin-2-yl)pyridine] | 37.2% | + | – | + |
| COc1ccc(-c2cnc(-c3cnc(-c4cc(OC)c(OC)c(OC)c4)c(C)c3)c(/C=C/c3ccccc3)c2)cc1OC [compound 30849, 5-(3,4-dimethoxyphenyl)-2-(6-(3,4,5-trimethoxyphenyl)-5-methylpyridin-3-yl)-3-styrylpyridine] | 19.9% | + | – | – |
| Cc1cc(-c2ncc(-c3cccnc3)cc2/C=C/c2ccccc2)cnc1-c1cccc(C/C(N)=N/O)c1 [compound 31367, (1Z)—N′-hydroxy-2-(3-(3-methyl-5-(5-(pyridin-3-yl)-3-styrylpyridin-2-yl)pyridin-2-yl)phenyl)acetamidine] | 52.7% | +++ | – | – |
| Cc1cc(-c2ncc(-c3cncnc3)cc2/C=C/c2ccccc2)cnc1-c1cncnc1 [compound 31361, 5-(3-methyl-5-(5-(pyrimidin-5-yl)-3-styrylpyridin-2-yl)pyridin-2-yl)pyrimidine] | 35.2% | ++ (numerous condensed or fragmented nuclei are observable after DAPI staining (20-50%)) | – | – |
| Cc1cc(-c2ncc(-c3cccnc3)cc2/C=C/c2ccccc2)cnc1-c1ccccc1 [compound 31349, 3-(6-(5-methyl-6-phenylpyridin-3-yl)-5-styrylpyridin-3-yl)pyridine] | 59.2% | +++ | – | +++ |
| Cc1cc(-c2ncc(-c3ccccc3)cc2/C=C/c2ccccc2)cnc1-c1cccnc1 [compound 31348, 3-methyl-5-(5-phenyl-3-styrylpyridin-2-yl)-2-(pyridin-3-yl)pyridine] | 58.8% | +++ | – | +++ |
| Cc1cc(-c2ncc(-c3ccn[nH]3)cc2/C=C/c2ccccc2)cnc1-c1ccn[nH]1 [compound 31363, 2-(5-methyl-6-(1H-pyrazol-5-yl)pyridin-3-yl)-5-(1H-pyrazol-5-yl)-3-styrylpyridine] | 63.7% | +++ | – | – |
| COc1cc(-c2cnc(-c3cnc(-c4cc(OC)c(OC)c(OC)c4)c(C)c3)c(/C=C/c3ccccc3)c2)cc(OC)c1OC [compound 30847, 5-(3,4,5-trimethoxyphenyl)-2-(6-(3,4,5-trimethoxyphenyl)-5-methylpyridin-3-yl)-3-styrylpyridine] | 22% | + | ± (very few cells were detached from the support (less than 10%)) | – |
